According to patent US8642788B2, “Activators of executioner procaspases 3, 6 and 7” (The Regents of the University of California, priority 2008, dated 2014):
Where two headings read alike, the source gives them in different places.

What was measured:
Type in all cases: biochemical
[1] = target: T1, procaspase-3 (Homo sapiens, UniProt P42574); assay: Executioner procaspase-3 activation assay (Ac-DEVD-AFC fluorogenic substrate)
T1 construct: His6 (C); made in house; host or cells: E. coli BL21(DE3)RP, pET-23b
T1 sequence (P42574 1-277): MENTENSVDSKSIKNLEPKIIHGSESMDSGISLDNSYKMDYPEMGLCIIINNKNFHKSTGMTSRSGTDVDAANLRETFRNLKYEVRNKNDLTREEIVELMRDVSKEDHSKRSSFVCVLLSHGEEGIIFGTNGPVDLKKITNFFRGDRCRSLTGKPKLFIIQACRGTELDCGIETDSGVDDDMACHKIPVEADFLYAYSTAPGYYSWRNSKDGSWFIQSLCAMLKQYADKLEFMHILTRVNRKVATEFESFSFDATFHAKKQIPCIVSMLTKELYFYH
How it was run: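 Procaspase-3 at 100 nM was incubated with activating compounds (100 nM to 100 uM) in 50 mM HEPES pH 7.4, 50 mM KCl, 1 mM DTT and 0.01% Triton-X100, the detergent limiting aggregation artefacts. Protein, substrate and inhibitor were kept as frozen aliquots and thawed just before use.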

[2] = target: T2, procaspase-6 (Homo sapiens, UniProt P55212); assay: Executioner procaspase-6 activation assay (Ac-VEID-AFC fluorogenic substrate); conditions: incubation with compound for 5 h at 37° C.; 100 nM procaspase
T2 sequence (P55212 1-293): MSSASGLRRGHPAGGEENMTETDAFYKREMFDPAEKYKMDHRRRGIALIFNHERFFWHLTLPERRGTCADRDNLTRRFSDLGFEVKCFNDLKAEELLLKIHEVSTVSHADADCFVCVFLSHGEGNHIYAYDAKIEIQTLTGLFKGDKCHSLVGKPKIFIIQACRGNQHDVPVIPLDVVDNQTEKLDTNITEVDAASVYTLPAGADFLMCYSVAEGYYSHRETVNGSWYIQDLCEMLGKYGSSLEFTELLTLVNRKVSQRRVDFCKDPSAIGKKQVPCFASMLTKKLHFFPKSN
How it was run: (§1)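 Procaspase at 100 nM incubated with compound (100 nM–100 μM) in 50 mM HEPES pH 7.4, KCl, DTT, 0.01% Triton X-100, 3% DMSO, 37 °C for 5 h; then 25 μM Ac-DEVD-AFC (procaspase-7) or Ac-VEID-AFC (procaspase-6), kinetic fluorescence 30 min (ex 365/em 495); EC50 reported.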

[3] = target: T3, procaspase-7 (Homo sapiens, UniProt P55210); assay: Executioner procaspase-7 activation assay (Ac-DEVD-AFC fluorogenic substrate); conditions: incubation with compound for 5 h at 37° C.; 100 nM procaspase
T3 construct: His6 (C); made in house; host or cells: E. coli BL21(DE3)RP, pET-21b
T3 sequence (P55210 1-303): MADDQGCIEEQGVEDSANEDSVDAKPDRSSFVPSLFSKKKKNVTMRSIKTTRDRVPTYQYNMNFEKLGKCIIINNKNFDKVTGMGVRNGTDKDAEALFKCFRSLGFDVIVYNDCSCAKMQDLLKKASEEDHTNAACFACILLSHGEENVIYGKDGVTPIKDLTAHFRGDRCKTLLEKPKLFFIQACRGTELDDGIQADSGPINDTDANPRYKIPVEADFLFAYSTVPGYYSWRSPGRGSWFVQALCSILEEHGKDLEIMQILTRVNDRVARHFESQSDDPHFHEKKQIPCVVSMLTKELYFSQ
How it was run: as §1

[4] = incubation with compound for 5 h at 37° C., 100 nM procaspase, read-out: Procaspase Activation 3

EC50 [1, 4] | EC50 [2] | EC50 [3] | Structure (SMILES) | EC50 [1]
> 100 µM | > 100 µM | > 100 µM | O=C(Nc1cccc(-c2cn[nH]c2)c1)c1cc2cccc(O)c2oc1=O [compound 149, 8-Hydroxy-2-oxo-2H-chromene-3-carboxylic acid [3-(1H-pyrazol-4-yl)-phenyl]-amide] | 
> 100 µM | > 100 µM | > 100 µM | O=C(Nc1cccc(-c2ccc3[nH]c(=O)[nH]c3c2)c1)c1cc2cccc(O)c2oc1=O [compound 157, 8-Hydroxy-2-oxo-2H-chromene-3-carboxylic acid [3-(2-oxo-2,3-dihydro-1H-benzoimidazol-5-yl)-phenyl]-amide] | 
> 100 µM | > 100 µM | > 100 µM | COc1cccc2cc(C(=O)Nc3cccc(-c4ccc5c(c4)OCCO5)c3)c(=O)oc12 [compound 87, 8-Methoxy-2-oxo-2H-chromene-3-carboxylic acid [3-(2,3-dihydro-benzo[1,4]dioxin-6-yl)-phenyl]-amide] | 
> 100 µM | > 100 µM | > 100 µM | N#Cc1ccccc1-c1cccc(NC(=O)c2cc3cccc(O)c3oc2=O)c1 [compound 89, 8-Hydroxy-2-oxo-2H-chromene-3-carboxylic acid (2′-cyano-biphenyl-3-yl)-amide] | 
> 100 µM | > 100 µM | > 100 µM | COc1ccc2cc(-c3cccc(NC(=O)c4cc5cccc(OC)c5oc4=O)c3)ccc2c1 [compound 78, 8-Methoxy-2-oxo-2H-chromene-3-carboxylic acid [3-(6-methoxy-naphthalen-2-yl)-phenyl]-amide] | 
0.5 to 10 µM | > 100 µM | > 100 µM | O=C(Nc1cccc(-c2ccc3occc(=O)c3c2)c1)c1cc2cccc(O)c2oc1=O [compound 161, 8-Hydroxy-2-oxo-2H-chromene-3-carboxylic acid [3-(4-oxo-4H-chromen-6-yl)-phenyl]-amide] | 
10 to 50 µM | > 100 µM | 10 to 50 µM | O=C(Nc1cccc(-c2ccccc2S(=O)(=O)N2CCOCC2)c1)c1cc2cccc(O)c2oc1=O [compound 98, 8-Hydroxy-2-oxo-2H-chromene-3-carboxylic acid (2′-(Morpholine-4-sulfonyl)-biphenyl-3-yl)-amide] | 
> 100 µM | > 100 µM | > 100 µM | CCOc1ccc(-c2cccc(NC(=O)c3cc4cccc(O)c4oc3=O)c2)cc1 [compound 68, 8-Hydroxy-2-oxo-2H-chromene-3-carboxylic acid (4′-Ethoxy-biphenyl-3-yl)-amide] | 
> 100 µM | > 100 µM | > 100 µM | COc1ccc(-c2cccc(NC(=O)c3cc4cccc(OC)c4oc3=O)c2)cn1 [compound 130, 8-Methoxy-2-oxo-2H-chromene-3-carboxylic acid [3-(6-methoxy-pyridin-3-yl)-phenyl]-amide] | 
> 100 µM | > 100 µM | > 100 µM | COc1cccc2cc(C(=O)Nc3cccc(-c4ccc(F)c(C#N)c4)c3)c(=O)oc12 [compound 146, 8-Methoxy-2-oxo-2H-chromene-3-carboxylic acid (3′-cyano-4′-fluoro-biphenyl-3-yl)-amide] | 
> 100 µM | > 100 µM | > 100 µM | COc1cccc2cc(C(=O)Nc3cccc(-c4ccc5c(c4)OCO5)c3)c(=O)oc12 [compound 63, 8-Methoxy-2-oxo-2H-chromene-3-carboxylic acid (3-Benzo[1,3]dioxol-5-yl-phenyl)-amide] | 
> 100 µM | > 100 µM | > 100 µM | COc1ccc(-c2cccc(NC(=O)c3cc4cccc(O)c4oc3=O)c2)c(OC)c1 [compound 50, 8-Hydroxy-2-oxo-2H-chromene-3-carboxylic acid (2′,4′-dimethoxy-biphenyl-3-yl)-amide] | 
> 100 µM | > 100 µM | > 100 µM | COc1ccc(-c2cccc(NC(=O)c3cc4cccc(O)c4oc3=O)c2)cc1C [compound 47, 8-Hydroxy-2-oxo-2H-chromene-3-carboxylic acid (4′-Methoxy-3′-methyl-biphenyl-3-yl)-amide] | 
> 100 µM | > 100 µM | > 100 µM | COc1cccc2cc(C(=O)Nc3cccc(-c4ccc5nonc5c4)c3)c(=O)oc12 [compound 160, 8-Methoxy-2-oxo-2H-chromene-3-carboxylic acid (3-benzo[1,2,5]oxadiazol-5-yl-phenyl)-amide] | 
> 100 µM | > 100 µM | > 100 µM | O=C(Nc1cccc(-c2ccn[nH]2)c1)c1cc2cccc(O)c2oc1=O [compound 155, 8-Hydroxy-2-oxo-2H-chromene-3-carboxylic acid [3-(2H-pyrazol-3-yl)-phenyl]-amide] | 
> 100 µM | > 100 µM | > 100 µM | COc1cccc2cc(C(=O)Nc3cccc(-c4cn[nH]c4)c3)c(=O)oc12 [compound 150, 8-Methoxy-2-oxo-2H-chromene-3-carboxylic acid [3-(1H-pyrazol-4-yl)-phenyl]-amide] | 
> 100 µM | > 100 µM | > 100 µM | O=C(Nc1cccc(-c2ccc3c(c2)OCCO3)c1)c1cc2cccc(OC(F)(F)F)c2oc1=O [compound 88, 8-Trifluoromethoxy-2-oxo-2H-chromene-3-carboxylic acid [3-(2,3-dihydro-benzo[1,4]dioxin-6-yl)-phenyl]-amide] | 
> 100 µM | > 100 µM | > 100 µM | COc1cccc2cc(C(=O)Nc3cccc(-c4cc5ccccc5n4C(=O)OC(C)(C)C)c3)c(=O)oc12 [compound 176, 2-{3-[(8-Methoxy-2-oxo-2H-chromene-3-carbonyl)-amino]-phenyl}-indole-1-carboxylic acid tert-butyl ester] | 
> 100 µM | > 100 µM | > 100 µM | O=C(Nc1cccc(N2CCOCC2)c1)c1cc2cccc(O)c2oc1=O [compound 16, 8-Hydroxy-2-oxo-2H-chromene-3-carboxylic acid (3-morpholin-4-yl-phenyl)-amide] | 
> 100 µM | 10 to 50 µM | > 100 µM | COc1cccc2cc(C(=O)Nc3cccc(-c4cc(F)cc(F)c4)c3)c(=O)oc12 [compound 178, 8-Methoxy-2-oxo-2H-chromene-3-carboxylic acid (3′,5′-difluoro-biphenyl-3-yl)-amide] | 
> 100 µM | > 100 µM | > 100 µM | O=C(Nc1cccc(-c2ccc3c(c2)OCCO3)c1)c1cc2cccc(O)c2oc1=O [compound 86, 8-Hydroxy-2-oxo-2H-chromene-3-carboxylic acid [3-(2,3-dihydro-benzo[1,4]dioxin-6-yl)-phenyl]-amide] | 
> 100 µM | > 100 µM | > 100 µM | O=C(Nc1cccc(-c2cc(F)cc(F)c2)c1)c1cc2cccc(O)c2oc1=O [compound 177, 8-Hydroxy-2-oxo-2H-chromene-3-carboxylic acid (3′,5′-difluoro-biphenyl-3-yl)-amide] | 
> 100 µM | > 100 µM | > 100 µM | O=C(Nc1cccc(-c2ccccc2OC(F)(F)F)c1)c1cc2cccc(O)c2oc1=O [compound 71, 8-Hydroxy-2-oxo-2H-chromene-3-carboxylic acid (2′-trifluoromethoxy-biphenyl-3-yl)-amide] | 
> 100 µM | > 100 µM | > 100 µM | O=C(Nc1cccc(-c2cncnc2)c1)c1cc2cccc(O)c2oc1=O [compound 135, 8-Hydroxy-2-oxo-2H-chromene-3-carboxylic acid (3-pyrimidin-5-yl-phenyl)-amide] | 
> 100 µM | > 100 µM | > 100 µM | COc1ncc(-c2cccc(NC(=O)c3cc4cccc(OC)c4oc3=O)c2)c(OC)n1 [compound 128, 8-Methoxy-2-oxo-2H-chromene-3-carboxylic acid [3-(2,4-dimethoxy-pyrimidin-5-yl)-phenyl]-amide] | 

Structure (SMILES) | EC50 [1, 4] | EC50 [2] | EC50 [3] | EC50 [1]
O=C(Nc1cccc(-c2ccc3cc[nH]c3c2)c1)c1cc2cccc(O)c2oc1=O [compound 165, 8-Hydroxy-2-oxo-2H-chromene-3-carboxylic acid [3-(1H-indol-6-yl)-phenyl]-amide] |  | > 100 µM | > 100 µM | > 100 µM
